Data taken from PubChem BioAssay (NCI).
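Following 48 hours of exposure in 96-well plates, responses at five concentrations were used to interpolate endpoints linearly. The concentration for full growth arrest is given as TGI.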

Tests used:
Test in all cases: NCI anticancer screen, dose series, 48 h
786-0 renal = test system: 786-0 renal
A498 renal = test system: A498 renal
A549 NSCLC = test system: A549 NSCLC
ACHN renal = test system: ACHN renal
BT-549 breast = test system: BT-549 breast
CAKI-1 renal = test system: CAKI-1 renal
CCRF-CEM leukemia = test system: CCRF-CEM leukemia
COLO 205 colon = test system: COLO 205 colon
DU-145 prostate = test system: DU-145 prostate
EKVX NSCLC = test system: EKVX NSCLC
HCC-2998 colon = test system: HCC-2998 colon
HCT-116 colon = test system: HCT-116 colon
HCT-15 colon = test system: HCT-15 colon
HL-60(TB) leukemia = test system: HL-60(TB) leukemia
HOP-62 NSCLC = test system: HOP-62 NSCLC
HOP-92 NSCLC = test system: HOP-92 NSCLC
HS 578T breast = test system: HS 578T breast
HT29 colon = test system: HT29 colon
IGROV1 ovarian = test system: IGROV1 ovarian
K-562 leukemia = test system: K-562 leukemia
KM12 colon = test system: KM12 colon
LOX IMVI melanoma = test system: LOX IMVI melanoma
M14 melanoma = test system: M14 melanoma
MALME-3M melanoma = test system: MALME-3M melanoma
MCF7 breast = test system: MCF7 breast
MDA-MB-231 breast = test system: MDA-MB-231 breast
MDA-MB-435 = test system: MDA-MB-435
MDA-N = test system: MDA-N
MOLT-4 leukemia = test system: MOLT-4 leukemia
NCI-H226 lung = test system: NCI-H226 lung
NCI-H23 lung = test system: NCI-H23 lung
NCI-H460 lung = test system: NCI-H460 lung
NCI-H522 lung = test system: NCI-H522 lung
NCI/ADR-RES ovarian = test system: NCI/ADR-RES ovarian
OVCAR-3 ovarian = test system: OVCAR-3 ovarian
OVCAR-4 ovarian = test system: OVCAR-4 ovarian
OVCAR-5 ovarian = test system: OVCAR-5 ovarian
OVCAR-8 ovarian = test system: OVCAR-8 ovarian
PC-3 prostate = test system: PC-3 prostate
RPMI-8226 leukemia = test system: RPMI-8226 leukemia
RXF 393 renal = test system: RXF 393 renal
SF-268 CNS = test system: SF-268 CNS
SF-295 CNS = test system: SF-295 CNS
SF-539 CNS = test system: SF-539 CNS
SK-MEL-2 melanoma = test system: SK-MEL-2 melanoma
SK-MEL-28 melanoma = test system: SK-MEL-28 melanoma
SK-MEL-5 melanoma = test system: SK-MEL-5 melanoma
SK-OV-3 ovarian = test system: SK-OV-3 ovarian
SN12C renal = test system: SN12C renal
SNB-19 CNS = test system: SNB-19 CNS
SW-620 colon = test system: SW-620 colon
T-47D breast = test system: T-47D breast
TK-10 renal = test system: TK-10 renal
U251 CNS = test system: U251 CNS
UACC-257 melanoma = test system: UACC-257 melanoma
UACC-62 melanoma = test system: UACC-62 melanoma
UO-31 renal = test system: UO-31 renal
SNB-75 CNS = test system: SNB-75 CNS
SR leukemia = test system: SR leukemia

## NC(N)=NS(=O)(=O)c1ccc(Nc2c3ccccc3nc3c(C(=O)NNCCO)cccc23)cc1
786-0 renal
  TGI: > 1000 nM
A498 renal
  TGI: > 1000 nM
A549 NSCLC
  TGI: > 1000 nM
ACHN renal
  TGI: > 1000 nM
BT-549 breast
  TGI: 303 nM
CAKI-1 renal
  TGI: 912 nM
CCRF-CEM leukemia
  TGI: > 1000 nM
COLO 205 colon
  TGI: 351 nM
DU-145 prostate
  TGI: > 1000 nM
EKVX NSCLC
  TGI: > 1000 nM
HCC-2998 colon
  TGI: 462 nM
HCT-116 colon
  TGI: 354 nM
HCT-15 colon
  TGI: > 1000 nM
HL-60(TB) leukemia
  TGI: 671 nM
HOP-62 NSCLC
  TGI: 536 nM
HOP-92 NSCLC
  TGI: > 1000 nM
HS 578T breast
  TGI: > 1000 nM
HT29 colon
  TGI: 933 nM
IGROV1 ovarian
  TGI: 434 nM
K-562 leukemia
  TGI: 422 nM
KM12 colon
  TGI: 287 nM
LOX IMVI melanoma
  TGI: 375 nM
M14 melanoma
  TGI: 456 nM
MALME-3M melanoma
  TGI: 273 nM
MCF7 breast
  TGI: 241 nM
MDA-MB-231 breast
  TGI: 731 nM
MDA-MB-435
  TGI: 446 nM
MDA-N
  TGI: 504 nM
MOLT-4 leukemia
  TGI: > 1000 nM
NCI-H226 lung
  TGI: 420 nM
NCI-H23 lung
  TGI: 280 nM
NCI-H460 lung
  TGI: 341 nM
NCI-H522 lung
  TGI: 280 nM
NCI/ADR-RES ovarian
  TGI: > 1000 nM
OVCAR-3 ovarian
  TGI: 269 nM
OVCAR-4 ovarian
  TGI: > 1000 nM
OVCAR-5 ovarian
  TGI: > 1000 nM
OVCAR-8 ovarian
  TGI: > 1000 nM
PC-3 prostate
  TGI: > 1000 nM
RPMI-8226 leukemia
  TGI: 420 nM
RXF 393 renal
  TGI: 756 nM
SF-268 CNS
  TGI: 307 nM
SF-295 CNS
  TGI: > 1000 nM
SF-539 CNS
  TGI: > 1000 nM
SK-MEL-2 melanoma
  TGI: 311 nM
SK-MEL-28 melanoma
  TGI: > 1000 nM
SK-MEL-5 melanoma
  TGI: 278 nM
SK-OV-3 ovarian
  TGI: > 1000 nM
SN12C renal
  TGI: > 1000 nM
SNB-19 CNS
  TGI: > 1000 nM
SW-620 colon
  TGI: 377 nM
T-47D breast
  TGI: 296 nM
TK-10 renal
  TGI: > 1000 nM
U251 CNS
  TGI: 269 nM
UACC-257 melanoma
  TGI: > 1000 nM
UACC-62 melanoma
  TGI: > 1000 nM
UO-31 renal
  TGI: > 1000 nM

## C/C(=N\NC(=O)Nc1ccccc1Cl)c1ccc(O)cc1
786-0 renal
  TGI: > 100000 nM
A549 NSCLC
  TGI: > 100000 nM
ACHN renal
  TGI: > 100000 nM
BT-549 breast
  TGI: > 100000 nM
CAKI-1 renal
  TGI: > 100000 nM
CCRF-CEM leukemia
  TGI: > 100000 nM
COLO 205 colon
  TGI: > 100000 nM
DU-145 prostate
  TGI: > 100000 nM
EKVX NSCLC
  TGI: > 100000 nM
HCC-2998 colon
  TGI: > 100000 nM
HCT-116 colon
  TGI: > 100000 nM
HCT-15 colon
  TGI: > 100000 nM
HL-60(TB) leukemia
  TGI: > 100000 nM
HOP-92 NSCLC
  TGI: > 100000 nM
HS 578T breast
  TGI: > 100000 nM
HT29 colon
  TGI: > 100000 nM
IGROV1 ovarian
  TGI: > 100000 nM
K-562 leukemia
  TGI: > 100000 nM
KM12 colon
  TGI: > 100000 nM
LOX IMVI melanoma
  TGI: > 100000 nM
M14 melanoma
  TGI: > 100000 nM
MALME-3M melanoma
  TGI: > 100000 nM
MCF7 breast
  TGI: > 100000 nM
MDA-MB-231 breast
  TGI: > 100000 nM
MDA-MB-435
  TGI: > 100000 nM
MDA-N
  TGI: > 100000 nM
MOLT-4 leukemia
  TGI: > 100000 nM
NCI-H226 lung
  TGI: > 100000 nM
NCI-H23 lung
  TGI: > 100000 nM
NCI-H460 lung
  TGI: > 100000 nM
NCI-H522 lung
  TGI: > 100000 nM
NCI/ADR-RES ovarian
  TGI: > 100000 nM
OVCAR-3 ovarian
  TGI: > 100000 nM
OVCAR-4 ovarian
  TGI: > 100000 nM
OVCAR-5 ovarian
  TGI: > 100000 nM
OVCAR-8 ovarian
  TGI: > 100000 nM
PC-3 prostate
  TGI: > 100000 nM
RPMI-8226 leukemia
  TGI: > 100000 nM
SF-268 CNS
  TGI: > 100000 nM
SF-295 CNS
  TGI: > 100000 nM
SF-539 CNS
  TGI: > 100000 nM
SK-MEL-2 melanoma
  TGI: > 100000 nM
SK-MEL-28 melanoma
  TGI: > 100000 nM
SK-MEL-5 melanoma
  TGI: > 100000 nM
SK-OV-3 ovarian
  TGI: > 100000 nM
SN12C renal
  TGI: > 100000 nM
SNB-19 CNS
  TGI: > 100000 nM
SNB-75 CNS
  TGI: 75800 nM
SR leukemia
  TGI: > 100000 nM
SW-620 colon
  TGI: > 100000 nM
T-47D breast
  TGI: > 100000 nM
TK-10 renal
  TGI: > 100000 nM
U251 CNS
  TGI: > 100000 nM
UACC-257 melanoma
  TGI: > 100000 nM
UACC-62 melanoma
  TGI: > 100000 nM
UO-31 renal
  TGI: > 100000 nM
